Test results reported in patent US7371364B2, “Cyclic peptide and imaging compound compositions and uses for targeted imaging and therapy” (Board of Regents, The University of Texas System, priority 2003, dated 2008).
Each block holds one molecule with its values, some of them ahead of it. Residues, ends and D or L forms follow the SMILES beside them.

Columns and labels:
KS1767 cells = assay type: cell-based; conditions: 1 h
Description: A Cell Adhesion Assay was additionally performed. KS1767 cells were seeded in DMEM/F12 culture medium supplemented with 10% fetal bovine serum for 24 hr. Cells (1×10^5) with different concentrations of c(KRGDf; SEQ ID NO. 3) or Cy5.5-c(KRGDf; SEQ ID NO. 3) were added to vitronectin-coated microliter wells under serum-free conditions and incubated at 37° C. for 1 hr. After washing steps, the bound cells were stained with 5% crystal violet, followed by addition of 0.1M HCl to each well. The concentrations of crystal violet were determined by UV/V is absorption at 627 nm. IC50 values were estimated from the dose-activity curves.

KS1767 tumors [1] = assay: In vivo NIR imaging of subcutaneous KS1767 tumors with RGD imaging agent; design: species or system mice
Source text: Cy5.5-c(KRGDf; SEQ ID NO. 3) may be used in near infrared (NIR) imaging. Mice inoculated with KS1767 were used for in vivo NIR studies. The mice were four to six week-old athymic nude mice (18-22 g, Harlan Sprague Dawley, Inc. Indianapolis, Ind.) which were housed 5 per cage and fed with sterilized pellet chow (Harlan Sprague Dawley) and sterilized water. The animals were maintained in a pathogen-free mouse colony in the Department of Veterinary Medicine at the University of Texas M.D. Anderson Cancer Center. All experiments were performed in accordance with the guidelines of the Institutional Animal Care and Use Committee.
Tumor cells for use in the animals were harvested near confluence by incubation with 0.05% trypsin-EDTA. Cells were pelleted by centrifugation at 450×g for 5 minutes and resuspended in sterile PBS. […] cells/animal were implanted subcutaneously into the chest wall or hind legs of the mice. Imaging studies were performed when tumors reached 4-6 mm in average diameter.
(§1) In vivo fluorescence imaging was accomplished by illuminating the animal with light from a laser diode (35 mW) expanded to an approximate 8 cm diameter circular area. The fluorescent light re-emitted from the animal was collected by an image intensifier (model FS9910C, ITT Night Vision, Roanoke, Va.) lens-coupled to a CCD camera (model CH350, Photometrics, Tucson, Ariz.). The imaging was designed so that the field of view could be varied from 3×3 cm to over 12×12 cm by varying the image distance of the 50 mm lens used to focus the image onto the photocathode of the intensifier. The lens was fitted with a holographic notch-plus filter (660 nm center wavelength; Kaiser Optical Systems, Inc., Ann Arbor, Mich.) and a bandpass filter (710 nm center wavelength) to reject back-scattered and reflected excitation photons. Image acquisition was accomplished using V++ software (Digital Optics, Auckland, New Zealand) and the obtained images were stored in uncompressed tagged image file format (tiff). Data processing and analysis were accomplished using Matlab software (The MathWorks, Inc., Natick, Mass.). For all imaging sessions, the image acquisition parameters were kept constant, and each image required 800 ms of camera integration.
For dynamic in vivo fluorescence imaging, mice were anesthetized with an i.p. injection of 50 mg/kg pentobarbital, and a catheter was placed in the tail vein for i.v. injection of NIR dyes. A white-light image of the animal was obtained using a low-power lamp as a white light source with holographic and interference filters removed. Fluorescence images were then acquired as a function of time following administration of Cy5.5 (6 nmol per/mouse) or Cy5.5-c(KRGDf; SEQ ID NO. 3) (6 nmol per/mouse). […]

αvβ3 integrin = target: T1, αvβ3 integrin (Homo sapiens, UniProt P05106+P06756); assay: In vitro blockage study of Cy5.5-c(KRGDf) binding to KS1767 cells (fluorescence microscopy); assay type: cell-based
T1 construct: endogenous in cells; host or cells: KS1767 sarcoma cells
Description: KS1767 sarcoma cells were maintained at 37° C. in a humidified atmosphere containing 5% CO2 in Dulbecco's Modified Eagle's Medium/Nutrient Mixture F-12 Ham (DMEM/F12) and 10% FBS (Gibco, Grand Island, N.Y.).
Cells were seeded on cover slips in 24-well plates (Becton Dickinson Labware, Franklin Lakes, N.J.) and incubated in DMEM/F12 culture medium (0.5 ml/well) overnight. Unconjugated c(KRGDf; SEQ ID NO. 3) was added to the culture medium at various concentrations. Cy5.5-c(KRGDf; SEQ ID NO. 3) was added one hour later to each well at a concentration of 6 μM. Cells were washed twice with PBS and incubated in a solution of Sytox Green in 95% ethyl alcohol (1 μM, Molecular Probe, Eugene, Oreg.) for 15 minutes to fix and stain cell nuclei. Cells were washed again with PBS and the cover slips were mounted for microscopic examination using a DMR microscope (Leica Microsystems Inc., Bannockburn, Ill.). The microscope was equipped with a 75W Xenon lamp, 775 nm/845 nm, 560 nm/645 nm, and 480 nm/535 nm (Excitation/emission) filters (Chroma Technology Corp., Brattleboro, Vt.), a Hamamatsu B/W Chilled CCD Camera (Hamamatsu Photonics K.K., Hamamatsu City, Japan), and an Image-Pro Plus 4.5.1 software (Media Cybernetics, Silver Spring, Md.). In the multiple staining images, Cy5.5 was pseudocolored red and Sytox Green was green.

KS1767 tumors [2] = assay: Dynamic in vivo NIR imaging, tumor ROI versus normal muscle ROI; design: species or system mice
Description: For dynamic in vivo fluorescence imaging, mice were anesthetized with an i.p. injection of 50 mg/kg pentobarbital, and a catheter was placed in the tail vein for i.v. injection of NIR dyes. A white-light image of the animal was obtained using a low-power lamp as a white light source with holographic and interference filters removed. Fluorescence images were then acquired as a function of time following administration of Cy5.5 (6 nmol per/mouse) or Cy5.5-c(KRGDf; SEQ ID NO. 3) (6 nmol per/mouse). For blocking studies, c(KRGDf; SEQ ID NO. 3) (600 nmol/mouse) was injected intravenously at 1 hr and 24 hr prior to the injection of Cy5.5-c(KRGDf; SEQ ID NO. 3). The acquisition time was 800 ms. Images were obtained every 6 seconds (s) for up to 20 minutes (min) following injection of each imaging agent. Each mouse was imaged again 24 hr after contrast injection.
Two regions of interest (ROI) were selected for quantitative analyses. One ROI was located entirely within the circumference of the tumor, and the other, of approximate equivalent size, defined a symmetric region of normal tissue located opposite the tumor site. (See FIG. 32A.) Utilizing Matlab software, the mean of the fluorescence intensity within each ROI was computed for every fluorescence image acquired. Data were acquired from the tumor ROI. (See FIG. 32B.) Data were acquired from normal muscle ROI. […] The symbols denote experimental measurements while the solid line denotes the corresponding least-squares fit. Animals were injected with Cy5.5-c(KRGDf; SEQ ID NO. 3) alone (6 nmol) (□), or Cy5.5-cc(KRGDf; SEQ ID NO. 3) 1 hr (∘) and 24 hr (⋄) after the injection of unconjugated c(KRGDf; SEQ ID NO. 3) peptide (600 nmol).

[3] = system: integrin-positive M21 melanoma; assay: In vivo NIR imaging of human melanoma xenograft, integrin-positive; design: species or system mice; conditions: for Visualization of tumor in NIR image: M21 melanoma, 24 hr after i.v. injection, 3 nmol/mouse
Source text: as §1

[4] = system: integrin-negative M21-L melanoma; assay: In vivo NIR imaging of human melanoma xenograft, integrin-negative; design: species or system mice
Source text: as §1

[5] = Stability assay in serum-containing culture medium (HPLC); assay type: in vitro ADME; conditions: 25° C.; for Degradation in culture medium: 3 hours
Description: Each test peptide was incubated in a serum-containing culture medium (Dulbecco's Modified Eagle's Medium/Nutrient Mixture F-12 Ham and 10% FBS) (1 mg/ml) at 25° C. At various time intervals, aliquots of peptide solution (50 μL) were withdrawn and subjected to HPLC analysis. The percentage of remaining intact peptide was recorded as a function of time.

[6] = target: αvβ3 integrin (on KS1767 cells) (UniProt P06756); assay: cell-based or functional assay
αvβ3 integrin (on KS1767 cells), sequence (P06756 31-1048, chain 1 of 2): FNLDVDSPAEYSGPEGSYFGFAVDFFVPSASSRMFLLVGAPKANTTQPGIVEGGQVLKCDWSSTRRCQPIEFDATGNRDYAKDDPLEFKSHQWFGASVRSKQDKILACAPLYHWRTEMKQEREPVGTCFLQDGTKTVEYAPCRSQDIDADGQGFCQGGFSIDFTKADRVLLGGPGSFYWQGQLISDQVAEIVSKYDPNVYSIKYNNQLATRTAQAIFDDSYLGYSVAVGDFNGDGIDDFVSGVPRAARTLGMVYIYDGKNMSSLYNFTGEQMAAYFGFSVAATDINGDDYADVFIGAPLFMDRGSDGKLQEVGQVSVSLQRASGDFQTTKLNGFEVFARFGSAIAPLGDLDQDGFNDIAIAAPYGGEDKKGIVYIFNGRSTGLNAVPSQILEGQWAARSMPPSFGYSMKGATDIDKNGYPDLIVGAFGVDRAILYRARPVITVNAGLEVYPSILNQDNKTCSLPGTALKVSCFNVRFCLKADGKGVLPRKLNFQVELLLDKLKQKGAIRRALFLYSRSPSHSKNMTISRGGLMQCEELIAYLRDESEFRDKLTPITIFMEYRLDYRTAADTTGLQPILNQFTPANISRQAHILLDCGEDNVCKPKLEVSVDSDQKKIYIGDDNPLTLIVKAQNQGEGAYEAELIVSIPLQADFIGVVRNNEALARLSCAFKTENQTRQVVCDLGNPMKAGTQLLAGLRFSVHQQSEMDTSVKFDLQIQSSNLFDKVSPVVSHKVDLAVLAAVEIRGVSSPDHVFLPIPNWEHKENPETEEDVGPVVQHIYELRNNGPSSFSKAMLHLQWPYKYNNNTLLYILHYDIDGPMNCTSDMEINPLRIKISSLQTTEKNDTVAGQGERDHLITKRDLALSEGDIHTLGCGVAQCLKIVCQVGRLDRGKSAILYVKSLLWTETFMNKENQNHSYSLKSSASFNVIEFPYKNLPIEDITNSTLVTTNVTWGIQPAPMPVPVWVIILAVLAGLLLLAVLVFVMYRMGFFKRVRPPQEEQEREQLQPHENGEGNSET
αvβ3 integrin (on KS1767 cells), sequence (P05106 27-788, chain 2 of 2, further chain): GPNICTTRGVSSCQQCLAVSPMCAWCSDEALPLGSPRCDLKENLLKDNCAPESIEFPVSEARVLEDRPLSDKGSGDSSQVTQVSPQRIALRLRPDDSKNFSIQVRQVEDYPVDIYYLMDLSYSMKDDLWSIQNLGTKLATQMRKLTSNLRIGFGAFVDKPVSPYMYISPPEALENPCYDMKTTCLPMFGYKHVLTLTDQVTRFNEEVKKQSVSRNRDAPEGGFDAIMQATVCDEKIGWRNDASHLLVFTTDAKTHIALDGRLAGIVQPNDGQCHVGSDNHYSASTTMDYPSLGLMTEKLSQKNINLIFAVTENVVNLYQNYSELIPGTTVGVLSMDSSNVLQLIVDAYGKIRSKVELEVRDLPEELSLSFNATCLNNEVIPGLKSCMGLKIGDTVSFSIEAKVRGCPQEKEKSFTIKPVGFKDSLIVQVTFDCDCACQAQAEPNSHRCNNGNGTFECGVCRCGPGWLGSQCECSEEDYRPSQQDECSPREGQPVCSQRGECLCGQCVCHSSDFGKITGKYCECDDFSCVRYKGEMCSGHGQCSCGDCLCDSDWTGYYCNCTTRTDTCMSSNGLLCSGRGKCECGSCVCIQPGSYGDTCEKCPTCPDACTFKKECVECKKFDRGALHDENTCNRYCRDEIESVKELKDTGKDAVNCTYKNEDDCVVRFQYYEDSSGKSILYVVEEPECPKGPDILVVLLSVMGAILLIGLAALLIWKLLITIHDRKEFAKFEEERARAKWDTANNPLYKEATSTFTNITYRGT

T1 sequence (P06756 31-889 limits assumed): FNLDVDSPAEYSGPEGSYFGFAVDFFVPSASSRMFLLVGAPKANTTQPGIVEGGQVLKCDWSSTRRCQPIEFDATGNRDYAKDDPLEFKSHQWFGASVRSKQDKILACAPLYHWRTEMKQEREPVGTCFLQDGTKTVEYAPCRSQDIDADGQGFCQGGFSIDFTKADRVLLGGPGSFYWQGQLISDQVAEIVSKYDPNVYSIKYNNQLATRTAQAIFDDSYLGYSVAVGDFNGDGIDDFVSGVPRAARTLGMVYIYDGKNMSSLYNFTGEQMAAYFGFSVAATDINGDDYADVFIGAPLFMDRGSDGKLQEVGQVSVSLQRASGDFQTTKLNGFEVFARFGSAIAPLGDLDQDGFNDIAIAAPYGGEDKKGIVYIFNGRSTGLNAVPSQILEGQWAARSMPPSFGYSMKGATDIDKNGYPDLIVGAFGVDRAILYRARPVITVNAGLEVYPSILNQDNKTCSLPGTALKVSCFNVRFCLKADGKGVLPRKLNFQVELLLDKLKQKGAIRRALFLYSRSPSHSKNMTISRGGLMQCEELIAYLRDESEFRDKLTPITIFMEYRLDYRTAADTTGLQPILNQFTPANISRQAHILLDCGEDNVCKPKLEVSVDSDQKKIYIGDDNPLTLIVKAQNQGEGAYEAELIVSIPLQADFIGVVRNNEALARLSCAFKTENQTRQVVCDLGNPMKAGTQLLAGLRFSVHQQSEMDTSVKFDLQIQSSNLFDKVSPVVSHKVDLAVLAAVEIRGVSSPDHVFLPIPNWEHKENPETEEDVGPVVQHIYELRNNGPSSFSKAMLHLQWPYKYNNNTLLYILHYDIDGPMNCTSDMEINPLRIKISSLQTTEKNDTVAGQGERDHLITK
T1 sequence (P06756 891-1048 partner limits assumed): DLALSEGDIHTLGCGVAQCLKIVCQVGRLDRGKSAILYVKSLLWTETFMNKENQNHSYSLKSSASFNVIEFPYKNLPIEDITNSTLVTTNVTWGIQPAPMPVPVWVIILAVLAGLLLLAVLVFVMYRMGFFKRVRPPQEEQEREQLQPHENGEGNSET
T1 sequence (P05106 27-788): as the sequence (P05106 27-788, chain 2 of 2, further chain) above

IC50 (KS1767 cells): ~1.11 µM
In vitro binding to αvβ3 (αvβ3 integrin; KS1767 cells, 6 μM imaging agent): demonstrated
Molecule: CC[N+]1=C(C=CC=CC=C2N(CCCCCC(=O)NCCCC[C@@H]3NC(=O)[C@@H](Cc4ccccc4)NC(=O)[C@H](CC(=O)O)NC(=O)CNC(=O)[C@H](CCCNC(=N)N)NC3=O)c3ccc4c(S(=O)(=O)O)cc(S(=O)(=O)O)cc4c3C2(C)C)C(C)(C)c2c1ccc1c(S(=O)(=O)[O-])cc(S(=O)(=O)O)cc21 [Cy5.5-c(KRGDf; SEQ ID NO. 3)]
Localization in excised tumor and adjacent muscle tissue (fluorescence microscopy) (KS1767 tumors [1]; ex vivo, KS1767 tumor excised 48 hr after i.v. injection): localized to the tumor, but not to the muscle cells
Tumor targeting / uptake in NIR image (KS1767 tumors [1]; subcutaneous KS1767 tumors, i.v. 6 nmol/mouse, image 24 hours after injection): clearly showed targeting
Rate of uptake in KS1767 tumors compared with muscle (KS1767 tumors [2]; 6 nmol/mouse i.v., dynamic imaging up to 20 min): faster
Rate of uptake in the tumor after preinjection of c(KRGDf) (KS1767 tumors [2]; c(KRGDf) 600 nmol, interval between injections 24 hr): partially recovered

Molecule: CC1(C)C(/C=C/C2=C(Oc3ccc(S(=O)(=O)O)cc3)C(=C/C=C3/N(CCCCS(=O)(=O)O)c4ccc(S(=O)(=O)[O-])cc4C3(C)C)/CCC2)=[N+](CCCCCC(=O)O)c2ccc(S(=O)(=O)O)cc21 [IRDye800, reference compound]
Visualization of tumor in NIR image [3]: did not have detectable signal

IC50 (KS1767 cells): ~2.58 µM
Molecule: CC1(C)C(=CC=C2CCCC(C=CC3=[N+](CCCCS(=O)(=O)O)c4ccc(S(=O)(=O)[O-])cc4C3(C)C)=C2Oc2ccc(S(=O)(=O)O)cc2)N(CCCCCC(=O)NCCCC[C@@H]2NC(=O)[C@@H](Cc3ccccc3)NC(=O)[C@H](CC(=O)O)NC(=O)CNC(=O)[C@H](CCCNC(=N)N)NC2=O)c2ccc(S(=O)(=O)O)cc21 [IRDye800-c(KRGDf; SEQ ID NO. 3)]
Visualization of tumor in NIR image [3]: clearly visualized
Tumor-to-background ratio ([3]; mice with M21 tumors, from fluorescence intensity in region-of-interest): 1.7
Visualization of tumor in NIR image ([4]; M21-L melanoma, 24 hr after i.v. injection, 3 nmol/mouse): not
Tumor-to-background ratio ([4]; mice with M21-L tumors, from fluorescence intensity in region-of-interest): 1.1

Degradation in culture medium [5]: no apparent degradation
Degradation over the course of the study ([5]; 5 days): no degradation
Molecule: CC(C)C[C@@H]1NC(=O)[C@H]([C@@H](C)O)NC(=O)[C@H](Cc2ccccc2)NC(=O)CNC(=O)[C@H](Cc2c[nH]c3ccccc23)NC(=O)[C@H](Cc2c[nH]cn2)NC(=O)[C@H]([C@@H](C)O)NC(=O)[C@H]([C@@H](C)O)NC(=O)[C@H](C)NC(=O)CCNC1=O [c(ATTHWGFTLβA; SEQ ID NO. 2)] (HELM PEPTIDE1{A.T.T.H.W.G.F.T.L.[bAla]}$PEPTIDE1,PEPTIDE1,1:R1-10:R2$$$V2.0; bridges inferred)

Degradation in culture medium [5]: degrades completely
metabolised at 3 h, 1 mg/ml ([5]; serum-containing culture medium (DMEM/F-12 Ham with 10% FBS), after 3 hours, read-out: Peptide degraded): > 90%
Molecule: CC(C)C[C@@H]1NC(=O)[C@H]([C@@H](C)O)NC(=O)[C@H](Cc2ccccc2)NC(=O)CNC(=O)[C@H](Cc2c[nH]c3ccccc23)NC(=O)[C@H](Cc2c[nH]cn2)NC(=O)[C@H]([C@@H](C)O)NC(=O)[C@H]([C@@H](C)O)NC(=O)[C@@H](N)CSSC[C@@H](C(N)=O)NC1=O [c(CTTHWGFTLC; SEQ ID NO. 1), reference compound] (HELM PEPTIDE1{C.T.T.H.W.G.F.T.L.C.[am]}$PEPTIDE1,PEPTIDE1,1:R3-10:R3$$$V2.0)

IC50 (KS1767 cells): ~2.47 µM
Blockage of Cy5.5-c(KRGDf) binding to KS1767 cells (αvβ3 integrin; unconjugated peptide added one hour before 6 μM Cy5.5-c(KRGDf)): dose-dependent blockage
Molecule: N=C(N)NCCC[C@@H]1NC(=O)[C@H](CCCCN)NC(=O)[C@@H](Cc2ccccc2)NC(=O)[C@H](CC(=O)O)NC(=O)CNC1=O [c(KRGDf; SEQ ID NO. 3), cyclo(Lys-Arg-Gly-Asp-phe), reference compound]
Effect of pretreatment on uptake of fluorophores in KS1767 tumors (KS1767 tumors [1]; 100-fold c(KRGDf) injected 1 hour before Cy5.5-c(KRGDf)): blocked the uptake
Effect of preinjection on uptake of Cy5.5-c(KRGDf) in the tumor (KS1767 tumors [2]; c(KRGDf) 600 nmol, interval between injections 1 hr): blocked the uptake

IC50 of inhibition of adhesion of KS1767 cells to vitronectin-coated microplate wells [6]: 1.11 µM
Molecule: Cy5.5-c(KRGDf; SEQ ID NO. 3) (peptide)

IC50 of inhibition of adhesion of KS1767 cells to vitronectin-coated microplate wells [6]: 2.47 µM
Molecule: cyclo(Lys-Arg-Gly-Asp-phe), c(KRGDf; SEQ ID NO. 3) (peptide)
